The test has as its target T1, SARS-CoV-2 RdRp (Severe acute respiratory syndrome coronavirus 2, UniProt P0DTD1).
T1 construct: The SARS-CoV-2 reporter and NSP12, NSP7, and NSP8 genes were cloned into pcDNA3.1(+) plasmid vectors; expressed in transfected cells; host or cells: 293T (HEK-293T) cells, pcDNA3.1(+) plasmids
The class given is cell-based.

For the compound `CCC(CC)COC(=O)[C@H](C)N[P@](=O)(OC[C@H]1O[C@@](C#N)(c2ccc3c(N)ncnn23)[C@H](O)[C@@H]1O)Oc1ccccc1` [remdesivir], the “effect on polymerase activity, in words” value is “dose-dependent reduction in polymerase activity”.

(Values after publication PMC12432892, “Therapeutic applications of interface-mimicking peptides for targeting the SARS-CoV-2 NSP12-NSP8 RdRp complex” (Molecular Therapy, 2025).)
